Like-named read-outs stand apart in the source and are kept apart here.
How the values were obtained:
cancer cell lines = assay: Cell viability analysis (WST-1) on cancer cell lines; assay type: cell-based, human; conditions: drug 10 μM, 72 hours, WST-1; Table 3
[1] = tested on: HI650 (Lung Adenocarcinoma); assay: Cell viability analysis, lung cancer HI650; assay type: cell-based, human; conditions: Homo sapiens, NCI-H1650, 72 h
[2] = tested on: A549 (Lung Adenocarcinoma); assay: Cell viability analysis, lung cancer A549; assay type: cell-based, human; conditions: Homo sapiens, A549, 72 h
[3] = tested on: AGS (Gastric Adenocarcinoma); assay: Cell viability analysis, gastric cancer AGS; assay type: cell-based, human; conditions: Homo sapiens, 72 h
[4] = tested on: MKN-45 (Gastric Adenocarcinoma); assay: Cell viability analysis, gastric cancer MKN-45; assay type: cell-based, human; conditions: Homo sapiens, MKN-45, 72 h
[5] = tested on: HepG2 (Hepatocellular Carcinoma); assay: Cell viability analysis, hepatic cancer HepG2; assay type: cell-based, human; conditions: Homo sapiens, HepG2, 72 h
[6] = tested on: Hep3B (hepatocellular carcinoma); assay: Cell viability analysis, hepatic cancer Hep3B; assay type: cell-based, human; conditions: Homo sapiens, Hep3B, 72 h, read-out: The results of antibiotic drug inhibiting cancer cell lines (cell viability analysis), Hep3B
[7] = tested on: LoVo (Colorectal Adenocarcinoma); assay: Cell viability analysis, colon cancer LoVo; assay type: cell-based, human; conditions: Homo sapiens, LoVo, 72 h
[8] = tested on: A375 (Amelanotic Melanoma); assay: Cell viability analysis, skin cancer A375; assay type: cell-based, human; conditions: Homo sapiens, A-375, 72 h
[9] = tested on: BCC (basal cell carcinoma); assay: Cell viability analysis, skin cancer BCC; assay type: cell-based, human; conditions: Homo sapiens, 72 h, read-out: The results of antibiotic drug inhibiting cancer cell lines (cell viability analysis), BCC
[10] = tested on: HeLa (Cervix Adenocarcinoma); assay: Cell viability analysis, cervical cancer HeLa; assay type: cell-based, human; conditions: Homo sapiens, HeLa, 72 h
[11] = tested on: C-33A (Cervical carcinoma); assay: Cell viability analysis, cervical cancer C-33A; assay type: cell-based, human; conditions: Homo sapiens, C-33-A, 72 h, read-out: The results of antibiotic drug inhibiting cancer cell lines (cell viability analysis), C-33A
[12] = tested on: TSGH-8301 (Urinary Bladder Carcinoma); assay: Cell viability analysis, bladder cancer TSGH-8301; assay type: cell-based, human; conditions: Homo sapiens, 72 h
T24 = assay: Cell viability analysis, bladder cancer T24; assay type: cell-based, human; conditions: Homo sapiens, T-24, 72 h, read-out: The results of antibiotic drug inhibiting cancer cell lines (cell viability analysis), T24
[13] = tested on: MCF7 (Mammary Gland, Adenocarcinoma); assay: Cell viability analysis, breast cancer MCF7; assay type: cell-based, human; conditions: Homo sapiens, MCF7, 72 h
[14] = tested on: MDA-MB-231 (Mammary Gland, Adenocarcinoma); assay: Cell viability analysis, breast cancer MDA-MB-231; assay type: cell-based, human; conditions: Homo sapiens, MDA-MB-231, 72 h, read-out: The results of antibiotic drug inhibiting cancer cell lines (cell viability analysis), MDA-MB231
AsPC-1 = assay: Cell viability analysis, pancreatic cancer AsPC-1; assay type: cell-based, human; conditions: Homo sapiens, ASPC1, 72 h, read-out: The results of antibiotic drug inhibiting cancer cell lines (cell viability analysis), AsPC-1
NIH: OVCAR-3 = assay: Cell viability analysis, ovarian cancer NIH: OVCAR-3; assay type: cell-based, human; conditions: Homo sapiens, OVCAR-3, 72 h, read-out: The results of antibiotic drug inhibiting cancer cell lines (cell viability analysis), NIH-OVCAR-3
TOV-21G = assay: Cell viability analysis, ovarian cancer TOV-21G; assay type: cell-based, human; conditions: Homo sapiens, TOV21G, 72 h, read-out: The results of antibiotic drug inhibiting cancer cell lines (cell viability analysis), TOV-21G
[15] = tested on: SAS (Tongue squamous cell carcinoma); assay: Cell viability analysis, tongue cancer SAS; assay type: cell-based, human; conditions: Homo sapiens, 72 h, read-out: The results of antibiotic drug inhibiting cancer cell lines (cell viability analysis), SAS
U-2OS = assay: Cell viability analysis, osteosarcoma U-2OS; assay type: cell-based, human; conditions: Homo sapiens, U2OS, 72 h, read-out: The results of antibiotic drug inhibiting cancer cell lines (cell viability analysis), U2OS
[16] = tested on: 786-O (Renal adenocarcinoma); assay: Cell viability analysis, renal cancer 786-O; assay type: cell-based, human; conditions: Homo sapiens, 786-0, 72 h, read-out: The results of antibiotic drug inhibiting cancer cell lines (cell viability analysis), 786-O
[17] = tested on: HL-60 (Acute Promyelocytic Leukemia); assay: Cell viability analysis, leukemia HL-60; assay type: cell-based, human; conditions: Homo sapiens, HL-60, 72 h, read-out: cell viability (survival rate), HL-60, drug 10 μM, 72 hours, WST-1, OD450 nm
[18] = tested on: HCT116 (p53+) (Colorectal Carcinoma)

In the case of `Clc1ccc(C(Cn2ccnc2)OCc2ccsc2Cl)c(Cl)c1` (stereo not shown) [Tioconazole], the “inhibition effect on different cancer cell lines” value (cancer cell lines) is reported as “significant inhibition effect”, the viability at 10 µM ([1]; read-out: The results of antibiotic drug inhibiting cancer cell lines (cell viability analysis), H1650, H1650, repeated experiment) is reported as 90.3% and the viability at 10 µM ([1]; read-out: cell viability (survival rate), H1650, drug 10 μM, 72 hours, WST-1, OD450 nm) is reported as 72.9%. It also gave a viability at 10 µM ([2]; read-out: The results of antibiotic drug inhibiting cancer cell lines (cell viability analysis), A549, A549, repeated experiment) of 100%, a viability at 10 µM ([2]; read-out: cell viability (survival rate), A549, drug 10 μM, 72 hours, WST-1, OD450 nm) of 47.6% and a viability at 10 µM ([3]; read-out: The results of antibiotic drug inhibiting cancer cell lines (cell viability analysis), AGS, repeated experiment) of 120%. For the same molecule, the viability at 10 µM ([3]; read-out: cell viability (survival rate), AGS, drug 10 μM, 72 hours, WST-1, OD450 nm) was 82.7%, the viability at 10 µM ([4]; read-out: The results of antibiotic drug inhibiting cancer cell lines (cell viability analysis), MKN-45, MKN-45, repeated experiment) was 99.9% and the viability at 10 µM ([4]; read-out: cell viability (survival rate), MKN-45, drug 10 μM, 72 hours, WST-1, OD450 nm) was 61%. It also gave a viability at 10 µM ([5]; read-out: The results of antibiotic drug inhibiting cancer cell lines (cell viability analysis), HepG2, HepG2, repeated experiment) of 109%, a viability at 10 µM ([5]; read-out: cell viability (survival rate), HepG2, drug 10 μM, 72 hours, WST-1, OD450 nm) of 100% and a viability at 10 µM [6] of 120%. The viability at 10 µM ([7]; read-out: The results of antibiotic drug inhibiting cancer cell lines (cell viability analysis), LoVo, repeated experiment) was 99.8%, the viability at 10 µM ([7]; read-out: cell viability (survival rate), LoVo, drug 10 μM, 72 hours, WST-1, OD450 nm) was 83.2% and the viability at 10 µM ([8]; read-out: The results of antibiotic drug inhibiting cancer cell lines (cell viability analysis), A375, A375, repeated experiment) was 97.8%. For the same molecule, the viability at 10 µM ([8]; read-out: cell viability (survival rate), A375, drug 10 μM, 72 hours, WST-1, OD450 nm) was 60.9%, the viability at 10 µM [9] was 87.8% and the viability at 10 µM ([10]; read-out: The results of antibiotic drug inhibiting cancer cell lines (cell viability analysis), HeLa, repeated experiment) was 96.9%. It also gave a viability at 10 µM ([10]; read-out: cell viability (survival rate), HeLa, drug 10 μM, 72 hours, WST-1, OD450 nm) of 58.5%, a viability at 10 µM [11] of 114% and a viability at 10 µM ([12]; read-out: The results of antibiotic drug inhibiting cancer cell lines (cell viability analysis), TSGH-8301, TSGH-8301, repeated experiment) of 105%. The viability at 10 µM ([12]; read-out: cell viability (survival rate), TSGH, drug 10 μM, 72 hours, WST-1, OD450 nm) was 68.1%, the viability at 10 µM (T24) was 88.8% and the viability at 10 µM ([13]; read-out: The results of antibiotic drug inhibiting cancer cell lines (cell viability analysis), MCF-7, MCF-7, repeated experiment) was 97.8%. The viability at 10 µM ([13]; read-out: cell viability (survival rate), MCF7, drug 10 μM, 72 hours, WST-1, OD450 nm) was 48%, the viability at 10 µM [14] was 103% and the viability at 10 µM (AsPC-1) was 80.1%. For the same molecule, the viability at 10 µM (NIH: OVCAR-3) was 92.5%, the viability at 10 µM (TOV-21G) was 78.5% and the viability at 10 µM [15] was 93.6%. It also gave a viability at 10 µM (U-2OS) of 92.4%, a viability at 10 µM [16] of 75.6% and a viability at 10 µM [17] of 57.1%. For the same molecule, the viability [18] was 103%.

Reference: patent publication US10105357B2, “Indication of antibiotic drugs for preparation of cancer inhibition pharmaceutical composition” (LAUNX BIOMEDICAL CO., LTD., priority 2014, dated 2018)
